# Reference: paper PMC6968685 (Journal of Enzyme Inhibition and Medicinal Chemistry, 2020)
# Read-outs that look alike come from different tables or passages of the source.
# Key:
# [1] = system: T. brucei brucei AnTat 1.9; assay: In vitro antitrypanosomal activity, Alamar Blue assay; assay type: cell-based; conditions: for Selectivity index HepG2/Tryp.: SI = CC50 HepG2 / IC50 Trypanosoma brucei brucei; for IC50: Trypanosoma brucei, slender bloodstream trypomastigotes, AnTat 1.9 strain, read-out: Trypanosoma brucei brucei IC50 values, Trypanos Antat 1.9
# Description: The effects of the tested compounds on the growth of T. brucei brucei were assessed using an Alamar Blue® assay described by Räz et al.[49] T. brucei brucei AnTat 1.9 (IMTA, Antwerpen, Belgium) was cultured in MEM with Earle’s salts, supplemented according to the protocol of Baltz et al.[50] with the following modifications: 0.5 mM mercaptoethanol (Sigma Aldrich), 1.5 mM L-cysteine (Sigma Aldrich), 0.05 mM bathocuproine sulphate (Sigma Aldrich), and 20% heat-inactivated horse serum (Gibco, France) at 37 °C and 5% CO2. Samples were incubated at an average density of 2000 parasites/well in sterile 96-wells plates (Fisher, France) with various concentrations of compounds dissolved in 0.9% NaCl. All doses were tested in duplicate. Appropriate controls treated with solvents 0.9% NaCl or DMSO or with suramin, pentamidine, eflornithine, and fexinidazole (reference drugs purchased from Sigma Aldrich and Fluorochem, UK) were added to each set of experiments. After 69 h incubation period at 37 °C, 10 µl of the viability marker Alamar Blue (Fisher) was added to each well, and the plates were incubated for 5 h. The plates were read in a PerkinElmer ENSPIRE (Germany) microplate reader using an excitation wavelength of 530 nm and an emission wavelength of 590 nm. […] IC50 values were calculated using a nonlinear regression analysis of dose-response curves performed using GraphPad Prism software (La Jolla, CA). IC50 values were calculated from three independent experiments.
# [2] = system: L. donovani (MHOM/IN/00/DEVI) promastigotes; assay: In vitro antileishmanial activity, MTT assay on promastigotes; assay type: cell-based; conditions: Leishmania donovani, 72 h incubation, ≥10 = no activity noted at the highest concentration tested
# Description: L. donovani (MHOM/IN/00/DEVI) used in this study was provided by the CNR Leishmania (Montpellier, France). The effects of the tested compounds on the growth of L. donovani (MHOM/IN/00/DEVI) promastigotes were assessed by MTT assay. Briefly, promastigotes in log-phase in Schneider’s medium supplemented with 20% foetal calf serum (FCS), 2 mM L-glutamine and antibiotics (100 U/ml penicillin and 100 µg/ml streptomycin), were incubated at an average density of 10^6 parasites/ml in sterile 96-well plates with various concentrations of compounds dissolved in DMSO (final concentration less than 0.5% v/v), in duplicate. Appropriate controls treated with DMSO and amphotericin B (reference drug purchased from Sigma-Aldrich) were added to each set of experiments. After 72 h incubation period at 27 °C, parasite metabolic activity was determined. Each well was microscopically examined for precipitate formation. To each well was added 20 µl of 5 mg/ml MTT [3–(4,5-dimethylthiazol-2-yl)-2,5-diphenyltetrazolium bromide)] solution followed by 4 h incubation time. The enzyme reaction was stopped by addition of 100 µl of 50% isopropanol/10% sodium dodecyl sulfate. Plates were vigorously shaken (300 rpm) for 10 min, and the absorbance was measured at 570 nm in a BIO-TEK ELx808 Absorbance Microplate Reader. […] IC50 of the parasite’s growth (half maximal inhibitory concentration or IC50 values) were then calculated from the obtained experimental results using a previously described regression programme.
# [3] = Cytotoxicity evaluation, MTT; assay type: cell-based, human; conditions: human
# Description: These cells are a commonly used human hepatocarcinoma-derived cell line that has characteristics similar to those of primary hepatocytes. These cells express many hepatocyte-specific metabolic enzymes, thus enabling the cytotoxicity of tested product metabolites to be evaluated. […] Duplicate assays were performed for each sample. Each well was microscopically examined for precipitate formation before the medium was aspirated from the wells. After aspiration, 100 µl of MTT solution (0.5 mg/ml in medium without FCS) were then added to each well. […] The MTT solution was removed, and DMSO (100 µl) was added to dissolve the resulting blue formazan crystals. Plates were shaken vigorously (300 rpm) for 5 min. The absorbance was measured at 570 nm with 630 nm as reference wavelength in a BIO-TEK ELx808 Absorbance Microplate Reader. DMSO was used as blank and doxorubicin (Sigma Aldrich) as positive control. Cell viability was calculated as percentage of control (cells incubated without compound). The CC50 was determined from the dose-response curve using the TableCurve 2D version 5.0 software (Systat Software, San Jose, CA)
# [4] = system: P. falciparum CQ-sensitive strain 3D7; assay: In vitro antiplasmodial activity, SYBR Green I fluorescence-based method, strain 3D7; assay type: cell-based; conditions: for IC50: Plasmodium falciparum, chloroquine-sensitive strain 3D7, 48 h incubation, read-out: P. falciparum strains IC50 values, 3D7; for Selectivity index HepG2/3D7: SI = CC50 HepG2 / IC50 P. falciparum 3D7
# Description: The in vitro antiplasmodial activities were tested over concentrations ranging from […] against culture-adapted P. falciparum reference strains 3D7 and W2. […] The parasites were cultivated in RPMI medium (Sigma-Aldrich, Lyon, France) supplemented with 0.5% Albumax I (Life Technologies Corporation, Paisley, UK), hypoxanthine (Sigma-Aldrich), and gentamicin (Sigma-Aldrich) with human erythrocytes and were incubated at 37 °C in a candle jar, as described previously[43] .The P. falciparum drug susceptibility test was carried out in 96-well flat-bottom sterile plates in a final volume of 250 µl. After 48 h incubation period with the drugs, quantities of DNA in treated and control cultures of parasites in human erythrocytes were quantified using the SYBR Green I (Sigma-Aldrich) fluorescence-based method[44]^,[45]. Briefly, after incubation, plates were frozen at −20 °C until use. Plates were then thawed for 2 h at room temperature, and 100 µl of each homogenised culture was transferred to a well of a 96-well flat-bottom sterile black plate (Nunc, Inc., Rochester, NY) that contained 100 µl of the SYBR Green I lysis buffer (2xSYBR Green, 20 mM Tris base pH 7.5, 5 mM EDTA, 0.008% w/v saponin, 0.08% w/v Triton X-100). […] Plates were incubated for 1 h at room temperature and then read on a fluorescence plate reader (Tecan, Grödig, Austria) using excitation and emission wavelengths of 485 and 535 nm, respectively. IC50 values were calculated by non-linear regression analysis of data from dose-response curves, using TableCurve 2D version 5.0 software (Systat Software, San Jose, CA). IC50 values are reported as means calculated from three independent experiments.
SMILES,IC50 [1] [µM],IC50 [2] [µM],IC50 [4] [µM],Selectivity index HepG2/Tryp. [1],CC50 at 72 h [3] [µM],Selectivity index HepG2/3D7 [4],"CC50 at 72 h ([3]; HepG2 cells, 72 h, read-out: Cytotoxicity to HepG2 cells CC50 values) [µM]"
"COc1cccc2c1C(=O)c1c(O)c3c(c(O)c1C2=O)C[C@@](O)(C(=O)CO)C[C@@H]3O[C@H]1C[C@H](N)[C@H](O)[C@H](C)O1 [Doxorubicin, reference compound]",–,–,–,–,–,–,0.06 ± 0.02
"NCCCC(N)(C(=O)O)C(F)F (centres unmarked) [Eflornithine, reference compound]",15.2 ± 0.64,–,–,–,–,–,–
"C[C@@H]1[C@H](O)[C@@H](C)/C=C/C=C/C=C/C=C/C=C/C=C/C=C/[C@H](O[C@@H]2O[C@H](C)[C@@H](O)[C@H](N)[C@@H]2O)C[C@@H]2O[C@](O)(C[C@@H](O)C[C@@H](O)[C@H](O)CC[C@@H](O)C[C@@H](O)CC(=O)O[C@H]1C)C[C@H](O)[C@H]2C(=O)O [Amphotericin B, reference compound]",–,0.1 ± 0.04,–,–,–,–,–
"CSc1ccc(OCc2ncc([N+](=O)[O-])n2C)cc1 [Fexinidazole, reference compound]",0.59 ± 0.039,–,–,–,–,–,–
"Cc1ccc(C(=O)Nc2ccc(S(=O)(=O)O)c3cc(S(=O)(=O)O)cc(S(=O)(=O)O)c23)cc1NC(=O)c1cccc(NC(=O)Nc2cccc(C(=O)Nc3cc(C(=O)Nc4ccc(S(=O)(=O)O)c5cc(S(=O)(=O)O)cc(S(=O)(=O)O)c45)ccc3C)c2)c1 [Suramine, reference compound]",0.03 ± 0.003,–,–,–,–,–,–

# The next lines start with results.
IC50 [1] [µM],IC50 [2] [µM],IC50 [4] [µM],SMILES,Selectivity index HepG2/Tryp. [1],CC50 at 72 h [3] [µM],Selectivity index HepG2/3D7 [4],"CC50 at 72 h ([3]; HepG2 cells, 72 h, read-out: Cytotoxicity to HepG2 cells CC50 values) [µM]"
1.22 ± 0.121,≥ 10,0.69 ± 0.07,"CN1CCN(CCCCNCc2ccc(-c3cc(-c4ccc(CNCCCCN5CCN(C)CC5)cc4)c4ccccc4n3)cc2)CC1 [Compound 1d, 2,4-Bis{4-[(4–(4-methylpiperazin-1-yl)butyl)aminomethyl]phenyl}quinoline]",6.32,7.71 ± 0.4,11.17,–
1.36 ± 0.194,≥ 10,1.95 ± 0.774,"CN1CCN(CCCNCc2cccc(-c3cc(-c4cccc(CNCCCN5CCN(C)CC5)c4)c4ccccc4n3)c2)CC1 [Compound 1r, 2,4-Bis{3-[(3–(4-methylpiperazin-1-yl)propyl)aminomethyl]phenyl}quinoline]",3.65,4.97 ± 0.3,2.55,–
1.3 ± 0.101,≥ 10,1.44 ± 0.128,"CN(C)CCCNCc1cccc(-c2cc(-c3cccc(CNCCCN(C)C)c3)c3ccccc3n2)c1 [Compound 1q, 2,4-Bis{3-[(3-dimethylaminopropyl)aminomethyl]phenyl}quinoline]",5.18,6.74 ± 0.7,4.68,–
1.86 ± 0.135,≥ 10,2.35 ± 0.488,"CN1CCN(CCCCNCc2ccc(-c3nc(-c4ccc(CNCCCCN5CCN(C)CC5)cc4)c4ccccc4n3)cc2)CC1 [Compound 3d, 2,4-Bis{4-[(4–(4-methylpiperazin-1-yl)butyl)aminomethyl]phenyl}quinazoline]",15.44,28.7 ± 1.9,12.22,–
2.39 ± 0.129,≥ 10,1.52 ± 0.172,"CN1CCN(CCCNCc2ccc(-c3nc(-c4ccc(CNCCCN5CCN(C)CC5)cc4)c4ccccc4n3)cc2)CC1 [Compound 3e, 2,4-Bis{4-[(3–(4-methylpiperazin-1-yl)propyl)aminomethyl]phenyl}quinazoline]",6.64,15.9 ± 1.7,10.44,–
2.07 ± 0.196,≥ 10,1.13 ± 0.107,"CN(C)CCCNCc1cccc(-c2nc(-c3cccc(CNCCCN(C)C)c3)c3ccccc3n2)c1 [Compound 3s, 2,4-Bis{3-[(3-dimethylaminopropyl)aminomethyl]phenyl}quinazoline]",0.55,1.14 ± 0.4,1.01,–
1.05 ± 0.058,≥ 10,2.52 ± 0.237,"COc1ccc2c(-c3ccc(CNCCCN(C)C)cc3)nc(-c3ccc(CNCCCN(C)C)cc3)nc2c1 [Compound 3n, 7-Methoxy-2,4-bis{4-[(3-dimethylaminopropyl)aminomethyl]phenyl}quinazoline]",2.58,2.71 ± 0.3,1.08,–
1.59 ± 0.071,≥ 10,1.34 ± 0.173,"c1ccc2c(-c3ccc(CNCCN4CCOCC4)cc3)cc(-c3ccc(CNCCN4CCOCC4)cc3)nc2c1 [Compound 1h, 2,4-Bis{4-[(2-morpholinoethyl)aminomethyl]phenyl}quinoline]",2.83,4.5 ± 0.4,3.36,–
0.72 ± 0.07,≥ 10,0.43 ± 0.142,"c1cc(CNCCCN2CCOCC2)cc(-c2nc(-c3cccc(CNCCCN4CCOCC4)c3)c3ccccc3n2)c1 [Compound 3u, 2,4-Bis{3-[(3-morpholinopropyl)aminomethyl]phenyl}quinazoline]",3.67,2.64 ± 0.2,6.14,–
0.84 ± 0.033,≥ 10,4.08 ± 0.488,"CN(C)CCCCNCc1ccc(-c2cc(-c3ccc(CNCCCCN(C)C)cc3)c3ccccc3n2)cc1 [Compound 1a, 2,4-Bis{4-[(4-dimethylaminobutyl)aminomethyl]phenyl}quinoline]",7.03,5.91 ± 1.5,1.45,–
2.05 ± 0.535,≥ 10,2.24 ± 0.435,"CN1CCN(CCCNCc2cccc(-c3nc(-c4cccc(CNCCCN5CCN(C)CC5)c4)c4ccccc4n3)c2)CC1 [Compound 3t, 2,4-Bis{3-[(3–(4-methylpiperazin-1-yl)propyl)aminomethyl]phenyl}quinazoline]",14.42,29.6 ± 2.2,13.20,–
